# Source: patent US20070009891A1, “Method for the isolation of expressed sequence tags in plants” (Metapontum Agrobios S.R.L., priority 2003, published 2007)
# Key:
# hard corn seedlings = assay: Germination of hard corn seeds on MSO medium with 5-azaC: seedling phenotype; format: in vivo, Triticum durum; conditions: increasing concentration of 5-azaC (0.1-1 mM), aerial part and roots, 24° C. in the dark
# Protocol: According to this method, the germination of the seeds is generally effected at a temperature ranging from 20 to 30° C., preferably from 22 to 26° C., in the dark and in the presence of concentrations of 5-azaC ranging from 0.1 mM to 2 mM, preferably from 0.3 mM to 0.5 mM.
# Seeds of hard corn (Triticum durum) were sterilized in a solution of ethyl alcohol at 70% for 10 minutes under stirring. After eliminating the ethanol, the seeds were treated with a solution containing sodium hypochlorite (ACE) at 50% and Sodium Dodecyl Sulfate (SDS) at 0.5%, incubated at room temperature for 20 minutes under light stirring.
# The seeds were subsequently washed with sterile H2O until the complete removal of the foam (about 7-8 times) and about 15-20 seeds were then placed in a Magenta Box each containing: 30 ml of MSO substrate (Sucrose 15 g/l, Muraschige-Sckug MS salts 2.2 g/l, Thiamin 0.2 mg/l, Myoinositol 50 mg/l, pH 5.6, agar 7 g/l), different concentrations of 5-azac (0.1 mM, 0.3 mM, 0.5 mM and 1 mM) and germinated in a chamber thermostat-regulated at 24° C. in the dark.
# Seeds of hard corn left to germinate in MSO medium without 5-azac, were used as a control.
# [1] = tested on: undifferentiated gene expression in hard corn seedlings; assay: RT-PCR amplification and sequencing of genes expressed in different growth phases, from seedlings germinated with 5-AzaCytidine; parameters: species or system Triticum durum; conditions: MSO germination medium; 0.1-1 mM tested
# Excerpt: Furthermore, to confirm the efficiency of the method used, several genes were identified which are expressed in different growth phases of soft corn, of which a large number of sequences are available as this species of corn is more widely studied that hard corn. On the basis of the sequences deposited in data banks (National Center for Biotechnology Information, NCBI; European Bioinformatics Institute, EBI) pairs of oligonucleotides identified in the zones flanking the region encoding the nucleotidic sequence, were prepared, and subsequently used as primers for the amplification of the whole gene being tested. […]
# The cDNA inserts were first amplified with the appropriate primers, cloned in the vector p-GEMT and introduced into the competent cells Escherichia coli (E. coli) DH5α. The recombinant clones, containing the expected fragments, were characterized by restriction analysis and their identity was confirmed by effecting sequence reactions carried out using the ABI Prism Big TaqDyeDeoxyTerminator Cycle Sequencing Kit (Applied Biosystems, Nr. 4303149) and analyzed with the automatic ABI 377 DNA Sequencer (Perkin Elmer ABI Prism). […]
# genomic DNA of hard corn = assay: Digestion of genomic DNA with restriction enzymes sensitive to methylation (CfoI, Hpa2, Msp1); parameters: species or system Triticum durum; conditions: seedlings about 21 days after germination; 5-azaC 0.1, 0.3, 0.5, 1 mM vs control
# Protocol: Analyses for correlating the demethylation degree of the DNA with an increase in the undifferentiated gene expression were carried out by digestion of the genomic DNA with restriction enzymes sensitive to methylation, i.e. enzymes which preferentially act on hypomethylated DNA.
# Analyses for correlating the demethylation degree of the DNA with an increase in the undifferentiated gene expression were carried out by digesting the genomic DNA with the following restriction enzymes: Cfol, Hpa2, Msp1 (Roche), sensitive to methylation.
# For each reaction, about 5 μg of total DNA were digested with 20 units of enzyme in a final volume of 150 μl, for a night at 37° C. Each digestion product was precipitated and resuspended in 30μl of H2O. The digestion mixtures were separated on agarose gel at 0.8% and subjected to horizontal electrophoresis, for a night at […] (Sambrook, J. et al., 1989, Cold Spring Harbor Laboratory Press).
compound,measurement,setting,value
"Nc1ncn([C@@H]2O[C@H](CO)[C@@H](O)[C@H]2O)c(=O)n1 [5-azaC, 5-AzaCytidine]",phenotype of the seedlings compared with control cultivated without 5-azaC,hard corn seedlings,slowing down in the development of the seedlings
same,concentration in the germination medium giving the best results (totipotent gene expression),[1],0.3 to 0.5 mM
same,digestion of the genomic DNA by methylation-sensitive restriction enzymes (demethylation degree),genomic DNA of hard corn,different digestion of the genomic DNA
